Assay [1] deals with cGMP-dependent protein kinase (Eimeria tenella, UniProt Q8MMZ8). Briefly: Inhibition of Et-PKG.
Assay [2] deals with Eimeria tenella. Briefly: Anticoccidial activity against Eimeria tenella infected Chick assessed as reduction in oocyst production at 25ppm after 7 days. In kind it is functional. Also on record: scale not given: the % may be the effect or the level left.
In assay [3] the test system is Eimeria acervulina. Briefly: Anticoccidial activity against Eimeria acervulina infected Chick assessed as reduction in oocyst production at 25 ppm after 7 days. It counts as functional. Also on record: scale not given: the % may be the effect or the level left.
For assay [4], the system named is Eimeria tenella. Briefly: Anticoccidial activity against Eimeria tenella infected Chick assessed as reduction in oocyst production at 12.5 ppm after 7 days. The arrangement: scale not given: the % may be the effect or the level left. It counts as functional.
Assay [5] deals with Eimeria acervulina. Briefly: Anticoccidial activity against Eimeria acervulina infected Chick assessed as reduction in oocyst production at 12.5 ppm after 7 days. It counts as functional. Also on record: scale not given: the % may be the effect or the level left.
In assay [6] the test system is Eimeria tenella. Briefly: Anticoccidial activity against Eimeria tenella infected Chick assessed as reduction in oocyst production at 50 ppm after 7 days. In kind it is functional. Also on record: scale not given: the % may be the effect or the level left.
For assay [7], the system named is Eimeria acervulina. Briefly: Anticoccidial activity against Eimeria acervulina infected Chick assessed as reduction in oocyst production at 50 ppm after 7 days. In kind it is functional. Also on record: scale not given: the % may be the effect or the level left.

The structures appear in SMILES notation. A value given as a limit tells only on which side of the number the result lay.

Chain of cGMP-dependent protein kinase (Q8MMZ8 whole entry): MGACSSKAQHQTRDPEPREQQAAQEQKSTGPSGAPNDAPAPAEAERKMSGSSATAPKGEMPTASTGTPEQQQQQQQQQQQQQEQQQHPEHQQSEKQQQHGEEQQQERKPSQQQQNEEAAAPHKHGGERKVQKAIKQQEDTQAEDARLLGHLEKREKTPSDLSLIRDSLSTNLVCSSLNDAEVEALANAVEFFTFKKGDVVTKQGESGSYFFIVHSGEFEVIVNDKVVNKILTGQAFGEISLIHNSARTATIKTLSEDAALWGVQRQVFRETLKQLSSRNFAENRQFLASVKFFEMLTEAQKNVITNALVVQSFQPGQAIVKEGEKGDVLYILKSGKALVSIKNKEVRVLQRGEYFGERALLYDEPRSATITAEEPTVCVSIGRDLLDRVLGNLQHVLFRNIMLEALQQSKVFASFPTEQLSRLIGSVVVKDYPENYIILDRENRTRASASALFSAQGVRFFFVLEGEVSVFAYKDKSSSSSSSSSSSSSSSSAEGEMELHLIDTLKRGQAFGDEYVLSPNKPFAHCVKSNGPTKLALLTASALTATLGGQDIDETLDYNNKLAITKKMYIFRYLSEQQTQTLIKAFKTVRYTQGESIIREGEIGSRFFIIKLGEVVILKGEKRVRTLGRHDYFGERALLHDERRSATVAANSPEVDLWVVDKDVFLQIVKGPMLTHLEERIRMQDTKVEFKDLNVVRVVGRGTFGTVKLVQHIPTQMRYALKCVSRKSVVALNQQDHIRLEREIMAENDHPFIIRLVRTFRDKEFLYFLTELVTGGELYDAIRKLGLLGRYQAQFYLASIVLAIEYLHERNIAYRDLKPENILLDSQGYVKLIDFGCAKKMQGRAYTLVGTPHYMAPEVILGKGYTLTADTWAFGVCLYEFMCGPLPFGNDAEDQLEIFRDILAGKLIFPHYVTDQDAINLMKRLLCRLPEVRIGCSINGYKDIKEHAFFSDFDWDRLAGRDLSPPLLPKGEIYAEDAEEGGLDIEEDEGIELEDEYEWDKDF

`C[C@H](Nc1nccc(-c2c(-c3ccc(F)cc3)nc3cc(CN(C)CCNS(C)(=O)=O)ccn23)n1)c1ccccc1` came in with an IC50 in assay [1] of 0.15 nM. Also, the Activity in the assay with Eimeria tenella [2] is on record as >80%; in the assay on Eimeria acervulina [3], <50%.
With `CN(C)Cc1ccn2c(-c3ccnc(Nc4ccccc4)n3)c(-c3ccc(F)cc3)nc2c1`, the half-inhibitory concentration (IC50) in assay [1] is 0.06 nM. Moreover, the Activity in the assay on Eimeria tenella [4] is listed as >80%; with Eimeria acervulina [5] it was <50%.
Turning to `CC(C)N(C)Cc1ccn2c(-c3ccnc(NCC(C)(C)C)n3)c(-c3ccc(F)cc3)nc2c1`, the IC50 in assay [1] stood at 0.6 nM. Also, the Activity with Eimeria tenella [2] and with Eimeria acervulina [3] was <50% throughout.
As to `CN(C)Cc1ccn2c(-c3ccnc(NC(C)(C)C)n3)c(-c3ccc(F)cc3)nc2c1`, in assay [1], inhibition was half-maximal at 0.31 nM (IC50).
In assay [1], `CC(C)Nc1nccc(-c2c(-c3ccc(F)cc3)nc3cc(CN(C)C)ccn23)n1` yielded an IC50 of 0.2 nM. Also, the Activity in the assay on Eimeria tenella [2] and in the assay with Eimeria acervulina [3] was >80% each time.
Take `CC(C)Nc1nccc(-c2c(-c3ccc(F)cc3)nc3cc(CN4CCC4)ccn23)n1`: the midpoint of inhibition in assay [1], the IC50, lay at 0.86 nM.
With `C[C@H](Nc1nccc(-c2c(-c3ccc(F)cc3)nc3cc(CN(C)CC(=O)N4CCCC4)ccn23)n1)c1ccccc1`, in assay [1], the IC50 amounted to 0.39 nM. Besides, the Activity is given as >80% in the assay with Eimeria tenella [6] and <50% in the assay with Eimeria acervulina [7].
`C[C@H](Nc1nccc(-c2c(-c3ccc(F)cc3)nc3cc(CN(C)CCN4CCC4)ccn23)n1)c1ccccc1` came in with a concentration for half-maximal inhibition (IC50) in assay [1] of 0.1 nM. Moreover, the figures for the Activity in the assay on Eimeria tenella [6] and with Eimeria acervulina [7] were >80% and <50%, respectively.
As to `C[C@H](Nc1nccc(-c2c(-c3ccc(F)cc3)nc3cc(CN(C)CCCN(C)C)ccn23)n1)c1ccccc1`, it took 0.07 nM to reach half-maximal inhibition in assay [1] (IC50). Besides, the results for the Activity in the assay with Eimeria tenella [4] and with Eimeria acervulina [5] were <50% and 50%, respectively.
In assay [1], `C[C@H](Nc1nccc(-c2c(-c3ccc(F)cc3)nc3cc(CN(C)CC(=O)N4CCC4)ccn23)n1)c1ccccc1` came in with an IC50 of 0.57 nM. Further, the Activity in the assay with Eimeria tenella [6] and in the assay on Eimeria acervulina [7] was <50% in each case.
As to `C[C@H](Nc1nccc(-c2c(-c3ccc(F)cc3)nc3cc(CN(C)CCO)ccn23)n1)c1ccccc1`, half-maximal inhibition in assay [1] (IC50) was put at 0.11 nM. Also, the Activity in the assay with Eimeria tenella [2] was >80%; with Eimeria acervulina [3], <50%.
With `CN(C)Cc1ccn2c(-c3ccnc(NCc4ccccc4)n3)c(-c3ccc(F)cc3)nc2c1`, the Activity in the assay with Eimeria tenella [2] and in the assay with Eimeria acervulina [3] was >80% each time.
`CC(C)N(C)Cc1ccn2c(-c3ccnc(N[C@@H](C)c4ccccc4)n3)c(-c3ccc(F)cc3)nc2c1` gave a concentration for half-maximal inhibition (IC50) in assay [1] of 0.11 nM. In addition, the Activity in the assay on Eimeria tenella [2] is given as <50%; in the assay with Eimeria acervulina [3] it was >80%.
On to `CC(C)N(C)Cc1ccn2c(-c3ccnc(NC(C)(C)C)n3)c(-c3ccc(F)cc3)nc2c1`, for which, in assay [1], the IC50 is 2.8 nM.
On the same count and under the same terms, for `CC(C)Nc1nccc(-c2c(-c3ccc(F)cc3)nc3cc(CN(C)C(C)C)ccn23)n1` the value was 1.3 nM.
On to `C[C@H](Nc1nccc(-c2c(-c3ccc(F)cc3)nc3cc(CN(C)[C@@H](C)C(=O)N(C)C)ccn23)n1)c1ccccc1`, for which the IC50 in assay [1] was found to be 0.26 nM. Besides, the Activity in the assay with Eimeria tenella [2] and with Eimeria acervulina [3] was 50% throughout.
In assay [1], `CCN(C)Cc1ccn2c(-c3ccnc(NCC(C)(C)C)n3)c(-c3ccc(F)cc3)nc2c1` showed an IC50 of 0.29 nM. The Activity in the assay on Eimeria tenella [2] was >80%; in the assay with Eimeria acervulina [3], <50%.
Consider `CC(C)(C)CNc1nccc(-c2c(-c3ccc(F)cc3)nc3cc(CN4CCC4)ccn23)n1`, for which half-maximal inhibition in assay [1] (IC50) required 0.45 nM. In addition, the Activity in the assay with Eimeria tenella [2] and with Eimeria acervulina [3] was <0% throughout.
Molecule `C[C@H](Nc1nccc(-c2c(-c3ccc(F)cc3)nc3cc(CN(C)C(CO)CO)ccn23)n1)c1ccccc1` yielded an IC50 in assay [1] of 0.15 nM. The Activity in the assay with Eimeria tenella [6] was >80%; in the assay with Eimeria acervulina [7], <50%.
`CCOC(=O)N1CCN(Cc2ccn3c(-c4ccnc(N[C@@H](C)c5ccccc5)n4)c(-c4ccc(F)cc4)nc3c2)CC1`: in assay [1], it took 5.6 nM to reach half-maximal inhibition (IC50). The Activity in the assay with Eimeria tenella [6] and in the assay with Eimeria acervulina [7] was <50% throughout.
`CCN(C)Cc1ccn2c(-c3ccnc(N[C@@H](C)c4ccccc4)n3)c(-c3ccc(F)cc3)nc2c1` yielded an IC50 in assay [1] of 0.13 nM. Further, the Activity with Eimeria tenella [6] and in the assay on Eimeria acervulina [7] was >80% in each case.
`CC(C)NCc1ccn2c(-c3ccnc(N[C@@H](C)c4ccccc4)n3)c(-c3ccc(F)cc3)nc2c1`: the IC50 in assay [1] was found to be 0.05 nM. Also, the Activity in the assay on Eimeria tenella [2] and in the assay with Eimeria acervulina [3] was >80% throughout.
As for `C[C@H](Nc1nccc(-c2c(-c3ccc(F)cc3)nc3cc(CN(C)CC4CCCO4)ccn23)n1)c1ccccc1` (stereo partly drawn), the concentration for half-maximal inhibition (IC50) in assay [1] is 0.27 nM. The Activity in the assay on Eimeria tenella [2] is given as >80%; in the assay with Eimeria acervulina [3], <50%.
`CN(C)Cc1ccn2c(-c3ccnc(NCC(C)(C)C)n3)c(-c3ccc(F)cc3)nc2c1`: the IC50 in assay [1] was 0.28 nM. Besides, the Activity is on record as >80% with Eimeria tenella [2] and <50% with Eimeria acervulina [3].

Values taken from ChEMBL document CHEMBL1148869, “Synthesis and SAR studies of potent imidazopyridine anticoccidial agents” (Bioorg Med Chem Lett, 2007).
